Assay results taken from patent US7371741B2, “Estradiol derivatives and pharmaceutical compositions using same” (EntreMed, Inc., priority 2003, dated 2008).

Experiments:
Type in all cases: cell-based
[1] = tested on: MDA-MB-231: breast cancer; experiment: In vitro anti-proliferative activity, BrdU incorporation, MDA-MB-231; settings: MDA-MB-231 cells, 50% inhibition of proliferation, BrdU incorporation into DNA
Experimental: (§1) Determination of in vitro anti-proliferative activity of substituted estradiol analogs: In vitro anti-proliferative or anti-mitogenic activity was determined using a commercially available cell-based assay in 96-well tissue culture plates with assessment of proliferation by evaluating DNA synthesis through incorporation into DNA of immuno-reactive (BrdU) nucleotides. The cell types used are commercially available (MDA-MB-231: breast cancer; U87-MG: glioblastoma; PC3: prostate cancer; HUVEC: non-transformed early passage human umbilical vein endothelial cells). These assays, and the many assay variations possible to determine in vitro anti-proliferative or anti-mitogenic activity, are well known to those skilled in the art. The concentration which causes 50% inhibition of proliferation (IC50) was estimated from a dose-response curve generally carried out with a range of concentrations from ≧100 microg/mL to ≦0.01 microg/mL.

[2] = tested on: HUVEC: non-transformed early passage human umbilical vein endothelial cells; experiment: In vitro anti-proliferative activity, BrdU incorporation, HUVEC; settings: 50% inhibition of proliferation, BrdU incorporation into DNA
Experimental: as §1

U87-MG: glioblastoma = experiment: In vitro anti-proliferative activity, BrdU incorporation, U87-MG; settings: U87-MG cells, 50% inhibition of proliferation, BrdU incorporation into DNA
Experimental: as §1

PC3: prostate cancer = experiment: In vitro anti-proliferative activity, BrdU incorporation, PC3; settings: PC3 cells, 50% inhibition of proliferation, BrdU incorporation into DNA
Experimental: as §1

IC50 [1] | IC50 (U87-MG: glioblastoma) | IC50 (PC3: prostate cancer) | SMILES | IC50 ([1]; Homo sapiens) | IC50 ([2]; Homo sapiens) | IC50 (U87-MG: glioblastoma; Homo sapiens, U-87 MG) | IC50 (PC3: prostate cancer; Homo sapiens, PC-3) | IC50 [2]
– | – | – | CCOc1cc2c(cc1O)CC[C@@H]1[C@@H]2CC[C@]2(C)C(O)CC[C@@H]12 (some centres unmarked) [Compound 2, 2-Ethoxyestra-1,3,5(10)-trien-3,17-diol] | 650 ± 230 nM | 140 ± 70 nM | – | – | –
– | – | – | CC#Cc1cc2c(cc1O)CCC1C2CC[C@@]2(C)C1CC[C@@H]2O (some centres unmarked) [Compound 3] | 3990 ± 1120 nM | 520 ± 140 nM | 2680 ± 220 nM | 2220 ± 130 nM | –
– | – | – | COc1cc2c(cc1O)CC[C@@H]1[C@@H]2CC[C@]2(C)C(=O)CC[C@@H]12 [Compound 4, 2-methoxyestra-1,3,5(10)-trien-3-ol-17-one, reference compound] | 11700 nM | 12600 nM | 10500 nM | 13700 nM | –
– | – | – | COc1cc2c(cc1O)CC[C@@H]1[C@@H]2CC[C@]2(C)CCC[C@@H]12 [Compound 7, 2-methoxyestra-1,3,5(10)-triene-3-ol] | 2200 ± 520 nM | 1320 ± 560 nM | 7350 ± 430 nM | 8490 ± 2490 nM | –
580 ± 310 nM | – | – | C=C1CC[C@H]2[C@@H]3CCc4cc(O)c(OC)cc4[C@H]3CC[C@]12C [Compound 10, 2-methoxy-17(20)-methyleneestra-1,3,5(10)-triene-3-ol] | – | – | – | – | 260 ± 230 nM
2630 ± 200 nM | 2370 ± 340 nM | 1150 ± 400 nM | CC=C1CCC2C3CCc4cc(O)c(OC)cc4C3CCC12C (centres unmarked) [Compound 13, 2-Methoxy-19-norpregna-1,3,5(10)17(20)-tetraene-3-ol] | – | – | – | – | 370 ± 80 nM
– | – | – | COc1cc2c(cc1O)CC[C@@H]1[C@@H]2CC[C@]2(C)[C@@H](C)CC[C@@H]12 [Compound 16, 2-methoxy-17β-methylestra-1,3,5(10)-triene-3-ol] | 3330 ± 230 nM | 2400 ± 450 nM | 9390 ± 430 nM | 6460 ± 2310 nM | –
– | – | – | C=Cc1cc2c(cc1OC)[C@H]1CC[C@]3(C)C(=O)CC[C@H]3[C@@H]1CC2 [Compound 25, 2-methoxy-3-(vinyl)estra-1,3,5(10)-triene-17-one] | 2570 ± 290 nM | 580 ± 10 nM | 2200 ± 60 nM | 1430 ± 400 nM | –
– | – | – | C=Cc1cc2c(cc1OC)[C@H]1CC[C@]3(C)[C@@H](O)CC[C@H]3[C@@H]1CC2 [Compound 25a, 2-methoxy-3-(vinyl)estra-1,3,5(10)-triene-17β-ol] | 8930 ± 610 nM | 1960 ± 50 nM | 7810 ± 1300 nM | 6340 ± 80 nM | –
> 100000 nM | > 100000 nM | > 100000 nM | COc1cc2c(cc1C(=O)O)CC[C@@H]1[C@@H]2CC[C@]2(C)C(=O)CC[C@@H]12 [Compound 28, 2-methoxy-3-(carboxylic acid)estra-1,3,5(10)-triene-17-one] | – | – | – | – | > 100000 nM
700 ± 120 nM | 1070 ± 150 nM | 700 ± 30 nM | COc1cc2c(cc1C(N)=O)CC[C@@H]1[C@@H]2CC[C@]2(C)C(=O)CC[C@@H]12 [Compound 31, 2-methoxy-3-carboxamideestra-1,3,5(10)-triene-17-one] | – | – | – | – | 790 ± 200 nM
– | – | – | COc1cc2c(cc1N)CC[C@@H]1[C@@H]2CC[C@]2(C)C(=O)CC[C@@H]12 [Compound 34, 3-amino-2-methoxyestra-1,3,5(10)-trien-17-one] | 46900 ± 8150 nM | 23400 ± 4140 nM | 81500 ± 20400 nM | > 100000 nM | –
– | – | – | CCOc1cc2c(cc1N)CC[C@@H]1[C@@H]2CC[C@]2(C)C(=O)CC[C@@H]12 [Compound 35, 3-Amino-2-ethoxyestra-1,3,5(10)-trien-17-one] | 10600 ± 2980 nM | 16500 ± 2020 nM | 26000 ± 1400 nM | 9250 ± 1580 nM | –
– | – | – | COc1cc2c(cc1F)CC[C@@H]1[C@@H]2CC[C@]2(C)C(=O)CC[C@@H]12 [Compound 40, 3-fluoro-2-methoxyestra-1,3,5(10)-trien-17-one] | 2940 ± 800 nM | 2100 ± 230 nM | 26000 ± 3380 nM | 9260 ± 730 nM | –
380 ± 150 nM | 720 ± 40 nM | 380 ± 210 nM | COc1cc2c(cc1OS(N)(=O)=O)CC[C@@H]1[C@@H]2CC[C@]2(C)CCC[C@@H]12 [Compound 46, 3-sulfamate-2-methoxyestra-1,3,5(10)-triene] | – | – | – | – | 210 ± 150 nM
– | – | – | C=Cc1cc2c(cc1OC)[C@H]1CC[C@]3(C)CCC[C@H]3[C@@H]1CC2 [Compound 52, 3-Vinyl-2-methoxyestra-1,3,5(10)-triene] | 1860 ± 220 nM | 580 ± 40 nM | 3140 ± 520 nM | 2120 ± 640 nM | –
5230 ± 1950 nM | 4520 ± 1300 nM | 2580 ± 360 nM | COc1cc2c(cc1C(N)=O)CC[C@@H]1[C@@H]2CC[C@]2(C)CCC[C@@H]12 [Compound 58, (2-Methoxyestra-1,3,5(10)-trien-3-yl)-3-carboxamide] | – | – | – | – | 1420 ± 410 nM
– | – | – | COc1cc2c(cc1N)CC[C@@H]1[C@@H]2CC[C@]2(C)CCC[C@@H]12 [Compound 61, 3-amino-2-methoxyestra-1,3,5(10)-triene] | 7620 ± 430 nM | 6430 ± 1320 nM | 10200 ± 3780 nM | 8630 ± 180 nM | –
560 ± 20 nM | 700 ± 60 nM | 910 ± 320 nM | C=C1CC[C@H]2[C@@H]3CCc4cc(OS(N)(=O)=O)c(OC)cc4[C@H]3CC[C@]12C [Compound 70, 17-methylene-3-sulfamate-2-methoxyestra-1,3,5(10)-triene] | – | – | – | – | 580 ± 30 nM
> 100000 nM | > 100000 nM | > 100000 nM | C=C1CC[C@H]2[C@@H]3CCc4cc(OS(=O)(=O)C(F)(F)F)c(OC)cc4[C@H]3CC[C@]12C [Compound 73, 3-triflic-17-methylene-2-methoxyestra-1,3,5(10)-triene] | – | – | – | – | > 100000 nM
– | – | – | C=C1CC[C@H]2[C@@H]3CCc4cc(C(N)=O)c(OC)cc4[C@H]3CC[C@]12C [Compound 82, 2-Methoxy-17-methyleneestra-1,3,5(10)-triene-3-carboxamide] | 190 ± 80 nM | 120 ± 60 nM | 250 ± 20 nM | 250 ± 10 nM | –
– | – | – | C=C1CC[C@H]2[C@@H]3CCc4cc(N)c(OC)cc4[C@H]3CC[C@]12C [Compound 85, 3-amino-17-methylene-2-methoxyestra-1,3,5(10)-triene] | 2110 ± 570 nM | 1000 ± 190 nM | 5510 ± 460 nM | 2400 ± 390 nM | –
– | – | – | C=C1CC[C@H]2[C@@H]3CCc4cc(N)c(OCC)cc4[C@H]3CC[C@]12C [Compound 86, 3-amino-17-methylene-2-ethoxyestra-1,3,5(10)-triene] | 2130 ± 120 nM | 2310 ± 50 nM | 7290 ± 2260 nM | 2750 ± 220 nM | –
580 ± 20 nM | 640 ± 90 nM | 660 ± 50 nM | CC=C1CC[C@H]2[C@@H]3CCc4cc(OS(N)(=O)=O)c(OC)cc4[C@H]3CC[C@]12C [Compound 94, 3-sulfamate-17-ethylene-2-methoxyestra-1,3,5(10)-triene] | – | – | – | – | 590 nM
1940 ± 270 nM | 2350 ± 410 nM | 920 ± 110 nM | CC=C1CC[C@H]2[C@@H]3CCc4cc(N)c(OC)cc4[C@H]3CC[C@]12C [Compound 109, 3-amino-17-ethylene-2-methoxyestra-1,3,5(10)-triene] | – | – | – | – | 720 ± 100 nM

SMILES | IC50 [1] | IC50 (U87-MG: glioblastoma) | IC50 (PC3: prostate cancer) | IC50 ([1]; Homo sapiens) | IC50 ([2]; Homo sapiens) | IC50 (U87-MG: glioblastoma; Homo sapiens, U-87 MG) | IC50 (PC3: prostate cancer; Homo sapiens, PC-3) | IC50 [2]
COc1cc2c(cc1OS(N)(=O)=O)CC[C@@H]1[C@@H]2CC[C@]2(C)C(=O)CC[C@@H]12 [Compound 19, 3-sulfamate-2-methoxyestra-1,3,5(10)-trien-17-one] | 600 ± 430 nM | 800 ± 230 nM | 510 ± 240 nM | – | – | – | – | 180 ± 40 nM
CCOc1cc2c(cc1OS(N)(=O)=O)CC[C@@H]1[C@@H]2CC[C@]2(C)C(=O)CC[C@@H]12 [Compound 20, 3-sulfamate-2-ethoxyestra-1,3,5(10)-trien-17-one] | 7520 ± 2040 nM | 19800 ± 2320 nM | 8930 ± 610 nM | – | – | – | – | 2590 ± 250 nM
COc1cc2c(cc1NC=O)CC[C@@H]1[C@@H]2CC[C@]2(C)C(O)CC[C@@H]12 (some centres unmarked) [Compound 43, 3-Formamide-2-methoxyestra-1,3-5(10)-trien-17-ol] | 780 ± 10 nM | 2700 ± 220 nM | 1340 ± 20 nM | – | – | – | – | 70 ± 20 nM
COc1cc2c(cc1NC=O)CC[C@@H]1[C@@H]2CC[C@]2(C)C(=O)CC[C@@H]12 [Compound 43A, 3-formamide-2-methoxyestra-1,3,5(10)-triene-17-one] | 1220 ± 600 nM | 940 ± 90 nM | 610 ± 270 nM | – | – | – | – | 530 ± 220 nM
CCOc1cc2c(cc1NC=O)CC[C@@H]1[C@@H]2CC[C@]2(C)C(=O)CC[C@@H]12 [Compound 44A, 3-Formamide-2-ethoxyestra-1,3-5(10)-trien-17-one] | 24900 ± 5630 nM | 21100 nM | 27700 ± 620 nM | – | – | – | – | 13200 ± 2200 nM
COc1cc2c(cc1NC=O)CC[C@@H]1[C@@H]2CC[C@]2(C)CCC[C@@H]12 [Compound 64, 3-formamide-2-methoxyestra-1,3,5(10)-triene] | 8290 ± 1640 nM | 23200 ± 2000 nM | 9240 ± 590 nM | – | – | – | – | 5800 ± 730 nM
C=C1CC[C@H]2[C@@H]3CCc4cc(NC=O)c(OC)cc4[C@H]3CC[C@]12C [Compound 88, 3-formamide-17-methylene-2-methoxyestra-1,3,5(10)-triene] | 300 ± 80 nM | 530 ± 240 nM | 240 ± 60 nM | – | – | – | – | 220 ± 30 nM
C=C1CC[C@H]2[C@@H]3CCc4cc(NC=O)c(OCC)cc4[C@H]3CC[C@]12C [Compound 89, 3-formamide-17-methylene-2-ethoxyestra-1,3,5(10)-triene] | 2410 ± 130 nM | 7730 nM | 1590 ± 190 nM | – | – | – | – | 2100 ± 20 nM
